Key:
[1] = test system: Haloperidol-induced catalepsy; assay: Haloperidol-induced catalepsy test (descent test), model for parkinsonism; format: in vivo, Sprague-Dawley rats; conditions: for descent latency: rats after haloperidol 0.5 mg/kg, compound 5 mg/kg, FIG. 1, vehicle control about 130 seconds
Description: (§1) Next, rats (Sprague-Dawley rats; Charles-River, Sulzfeld, Germany) were established as the animal model. The rats were kept in constant, reproducible conditions. Sprague-Dawley rats weighing about 220 to 300 g were used in the experiment. The rats were kept in groups. A light cycle of 12:12 hours was maintained (light switched on from 07:00 to 19:00 hours). For two weeks before the experiments, all the rats were kept in the same room. Water was made available ad libitum, standard animal feed was supplied once daily in an amount of 12 g per animal. All experiments were carried out between 09:00 and 17:00 hours and complied with international ethical standards and the German animal protection law. It was approved by the Animal Protection Commission, Tübingen Administrative Board, ZP 5/01.
Haloperidol-induced catalepsy is used here as a model for parkinsonism. Haloperidol is a dopamine receptor-blocking drug. The catalepsy induced in this way comprises akinesia and rigor. The haloperidol model can be treated with all known clinically effective antiparkinsonism drugs, as described above.
Dopamine hypofunction and the consequent parkinsonian symptoms were generated as follows.
Control Group: • Haloperidol (Haldol, Janssen®, Germany) was diluted with phosphate buffered saline (PBS; Sigma, Deisenhofen, Germany) to a concentration of 0.5 mg per ml. Twelve rats were each given an intraperitoneal (i.p.) injection of this solution with an absolute amount of haloperidol of 0.5 mg per kilogram of body weight and an injection with PBS.
Test Group: • Another twelve rats were treated identically, but instead of the PBS injection were given a fluorine-substituted amphetamine derivative 1-(3,4-difluorophenyl)-2-(N-ethylamino)propane (Formula III) dissolved in PBS.
The results of the descent tests are illustrated in FIG. 1. […] The descent latency of rats treated with MDMA (5 mg/kg) was much less, at about 30 seconds, but for the rats treated with 1-(3,4-difluorophenyl)-2-(N-ethylamino)propane (fMDE, Formula (III), 5 mg/kg) it was even lower.

[2] = test system: L-DOPA-induced dyskinesias; assay: L-DOPA-induced dyskinesia (AIM) in 6-hydroxydopamine hemiparkinsonian rats; format: in vivo
Description: as §1
24 rats were put in deep narcosis. One hemisphere of the rats was treated in each case with the neurotoxin 6-hydroxydopamine, which destroyed dopaminergic neurons in this hemisphere. […] Then the animals were treated intraperitoneally with an antiparkinsonian drug twice daily for 25 days. This comprised L-DOPA-methyl ester in an amount of 10 mg per kg of body weight with benserazide in an amount of 7.5 mg per kg of body weight (Sigma, Deisenhofen, Germany). Under this treatment the rats developed dyskinesias of the contralateral forepaws.
Control Group: • Continuing this treatment, 12 of the 24 rats were treated additionally with PBS.
Test Group: • The other twelve rats were treated additionally with a fluorinated amphetamine derivative 1-(3,4-difluorophenyl)-2-(N-ethylamino)propane (Formula III).
The results for the treatment are illustrated in FIG. 2. The dyskinesia was quantified (AIM=abnormal involuntary movements) in the control group on five successive days. […] For comparison, the dyskinesia quantification of the test group, i.e., the animals additionally treated with 1-(3,4-difluorophenyl)-2-(N-ethylamino)propane (Formula (III), fMDE, 5 mg/kg), was observed. The measurements were in each case recorded 60 minutes after the animals were treated. […]

| Compound | akinesia and rigor in the catalepsy test, test group versus control group ([1]; haloperidol 0.5 mg/kg i.p., compound dissolved in PBS, versus haloperidol + PBS) | descent latency [1] | onset of the antidyskinetic effect ([2]; 5 mg/kg, administration on successive days) | number of AIMs (abnormal involuntary movements) per 4 min versus vehicle control ([2]; 5 mg/kg, recorded 60 minutes after treatment, five successive days, FIG. 2) | expression of the dyskinesias, test group versus control group ([2]; in addition to L-DOPA-methyl ester 10 mg/kg + benserazide 7.5 mg/kg) |
| --- | --- | --- | --- | --- | --- |
| CCNC(C)Cc1ccc(F)c(F)c1 (stereo not drawn) [Formula III, 1-(3,4-difluorophenyl)-2-(N-ethylamino)propane] | significantly less pronounced | even lower | already seen on the first day | almost halved | significantly reduced |
| CNC(C)Cc1ccc2c(c1)OCO2 (stereo not drawn) [MDMA, 3,4-methylene dioxymethamphetamine, reference compound] |  | about 30 seconds |  |  |  |

Source: US20100179221A1, “FLUORINE-SUBSTITUTED AMPHETAMINES AND AMPHETAMINE DERIVATIVES AND USE THEREOF” (Universitat Tubingen, priority 2007, published 2010)
